Structures can show the parent of a compound that is named as a salt.

From patent US20190062305A1, “PYRIDYL OR PYRAZINYL COMPOUNDS CARRYING A METHYL-BOUND ALPHA-AMINO ACID AMIDE GROUP” (ABBVIE DEUTSCHLAND GMBH & CO. KG, priority 2015, published 2019) come the findings set out here.

The nature of data set [1]: Metabolic stability in human liver microsomes, unbound intrinsic clearance (Cl int/fu mic). The following applies: human, liver microsomes, pH 7.4, human liver microsomes 0.25 mg/mL, 0.5 μM compound, NADPH, read-out: Cl int, mic unb. (h) [l/h/kg] (unbound intrinsic clearance, human). It is filed as in vitro ADME. The method, boiled down:
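Compound (0.5 µM) was incubated with human liver microsomes (0.25 mg/mL) in pH 7.4 phosphate buffer at 37 °C with 1.0 mM NADPH, sampling from 0–30 min. Depletion was followed by LC-MS/MS, and CLint was derived from first-order t1/2 per mg protein. Microsomal unbound fraction came from 4 h equilibrium dialysis at 37 °C, giving CLint/fu mic.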

The target in data set [2] is T1, 5-HT2C receptor (Homo sapiens, UniProt P28335).
T1 construct: host or cells: U2OS
Nature of the data set: Human 5-HT2C functional assay (beta-arrestin2 recruitment, U2OS_HTR2C_β-Arrestin cells). It is filed as cell-based. Conditions: for EC50: beta-arrestin2 recruitment, U2OS_HTR2C_β-Arrestin cells, 1.5 h incubation, read-out: EC50 5-HT2C (potency in functional assay); for Emax: relative efficacy vs response to 10 μM 5-HT or maximal 5-HT effect (100%). The method, boiled down: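 U2OS cells expressing HTR2C with β-galactosidase complementation, switched to 1% serum medium 24 h post-plating, were treated next day with compound for 1.5 h; chemiluminescence read. Response expressed as % of 10 µM 5-HT or maximal 5-HT effect; EC50 from 4-parameter variable-slope fit.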

T1 sequence (P28335 33-458): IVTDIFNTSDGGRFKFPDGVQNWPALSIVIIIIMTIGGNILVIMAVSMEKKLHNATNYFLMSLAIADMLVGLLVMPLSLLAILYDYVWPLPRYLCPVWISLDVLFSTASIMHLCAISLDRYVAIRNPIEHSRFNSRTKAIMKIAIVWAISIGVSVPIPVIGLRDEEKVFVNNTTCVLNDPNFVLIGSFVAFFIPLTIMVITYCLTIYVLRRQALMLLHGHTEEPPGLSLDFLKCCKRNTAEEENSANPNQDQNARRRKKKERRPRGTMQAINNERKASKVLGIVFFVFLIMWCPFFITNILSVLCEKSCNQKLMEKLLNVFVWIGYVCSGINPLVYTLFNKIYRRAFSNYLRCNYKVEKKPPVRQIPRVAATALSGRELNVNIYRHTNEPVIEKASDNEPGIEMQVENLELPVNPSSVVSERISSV
T1 sequence (P32121 whole entry partner): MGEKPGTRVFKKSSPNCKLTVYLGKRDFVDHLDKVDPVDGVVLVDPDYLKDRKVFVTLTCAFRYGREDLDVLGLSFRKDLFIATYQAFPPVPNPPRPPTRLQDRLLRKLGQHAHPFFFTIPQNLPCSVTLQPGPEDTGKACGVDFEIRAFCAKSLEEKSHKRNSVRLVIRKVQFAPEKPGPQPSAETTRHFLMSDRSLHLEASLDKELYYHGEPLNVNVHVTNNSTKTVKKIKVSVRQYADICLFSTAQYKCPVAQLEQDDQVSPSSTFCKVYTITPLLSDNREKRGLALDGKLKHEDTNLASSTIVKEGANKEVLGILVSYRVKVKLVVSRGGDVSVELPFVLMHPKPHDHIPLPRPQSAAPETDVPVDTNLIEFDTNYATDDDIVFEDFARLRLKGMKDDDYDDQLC

For `COc1nc(OC2CCC(F)(F)CC2)c(F)cc1CNC(=O)[C@H]1CCCN1C` [Example 52, (2R)—N-[[6-(4,4-Difluorocyclohexoxy)-5-fluoro-2-methoxy-3-pyridyl]methyl]-1-methyl-pyrrolidine-2-carboxamide Hydrochloride], in data set [1], the CLint scaled at 0.5 μM was less than 5 L/h/kg. In data set [2], the EC50 is 20 to 200 nM and the Emax is greater than 70%.
Take `COc1nc(OC(C)C(F)(F)C(F)F)c(F)cc1CNC(=O)[C@@H]1CCCN1` (stereo partly drawn) [Example 53, (2S)—N-[[5-Fluoro-2-methoxy-6-(2,2,3,3-tetrafluoro-1-methyl-propoxy)-3-pyridyl]-methyl]pyrrolidine-2-carboxamide; Succinic Acid]: the CLint scaled at 0.5 μM in data set [1] was less than 5 L/h/kg. Besides, in data set [2], the EC50 is less than 20 nM and the Emax was greater than 70%.
Consider `COc1nc(OC2CC3C(C2)C3(F)F)c(F)cc1CNC(=O)[C@@H]1CCCN1` (stereo partly drawn) [Example 54, (2S)—N-[[6-[(6,6-Difluoro-3-bicyclo[3.1.0]hexanyl)oxy]-5-fluoro-2-methoxy-3-pyridyl]methyl]pyrrolidine-2-carboxamide 2,2,2-trifluoroacetic Acid], for which the CLint scaled at 0.5 μM in data set [1] was less than 5 L/h/kg. In data set [2], the EC50 is less than 20 nM and the Emax was greater than 70%.
In the case of `COc1nc(O[C@@H]2CCCC[C@H]2F)c(F)cc1CNC(=O)[C@@H]1CCCN1` [Example 55, (2S)—N-[[5-Fluoro-6-[(1R,2R)-2-fluorocyclohexoxy]-2-methoxy-3-pyridyl]methyl]pyrrolidine-2-carboxamide; 2,2,2-trifluoroacetic Acid], the CLint scaled at 0.5 μM in data set [1] is less than 5 L/h/kg. For the same molecule, in data set [2], the EC50 was less than 20 nM and the Emax was greater than 70%.
With `COc1nc(OCC2CC3C(C2)C3(F)F)c(F)cc1CNC(=O)[C@@H]1CCCN1` (stereo partly drawn) [Example 56, (2S)—N-[[6-[(6,6-Difluoro-3-bicyclo[3.1.0]hexanyl)methoxy]-5-fluoro-2-methoxy-3-pyridyl]methyl]pyrrolidine-2-carboxamide; 2,2,2-trifluoroacetic Acid], the CLint scaled at 0.5 μM in data set [1] is 5 to 50 L/h/kg. Moreover, in data set [2], the EC50 was less than 20 nM and the Emax is greater than 70%.
Regarding `COc1nc(OC2CCCC(F)(F)C2)c(F)cc1CNC(=O)[C@@H]1CCCN1` (stereo partly drawn) [Example 58, (2S)—N-[[6-(3,3-Difluorocyclohexoxy)-5-fluoro-2-methoxy-3-pyridyl]methyl]-pyrrolidine-2-carboxamide; 2,2,2-trifluoroacetic Acid], in data set [1], the CLint scaled at 0.5 μM was less than 5 L/h/kg. Besides, in data set [2], the EC50 is less than 20 nM and the Emax is greater than 70%.
On to `COc1nc(OC2CCC(F)(F)CC2)c(F)cc1CNC(=O)[C@@H]1C[C@@H](C)CN1` [Example 59, (2 S,4R)—N-[[6-(4,4-Difluorocyclohexoxy)-5-fluoro-2-methoxy-3-pyridyl]methyl]-4-methyl-pyrrolidine-2-carboxamide Hydrochloride], for which, in data set [1], the CLint scaled at 0.5 μM is less than 5 L/h/kg. In data set [2], the EC50 is less than 20 nM and the Emax fell in the range of 50 to 70%.
Taken in the same sequence, the figures for `COc1nc(OC2CCC(C(F)(F)F)CC2)c(F)cc1CNC(=O)[C@@H]1C[C@@H](C)CN1` (stereo partly drawn) [Example 60, (2S,4R)—N-[[5-Fluoro-2-methoxy-6-[4-(trifluoromethyl)cyclohexoxy]-3-pyridyl]methyl]-4-methyl-pyrrolidine-2-carboxamide Hydrochloride] were 50 to 500 L/h/kg, 20 to 200 nM and 50 to 70%.
As to `COc1nc(OC2CCC(F)(F)CC2)c(F)cc1CNC(=O)[C@@H]1C[C@@H](C)CN1C` [Example 61, (2S,4R)—N-[[6-(4,4-Difluorocyclohexoxy)-5-fluoro-2-methoxy-3-pyridyl]methyl]-1,4-dimethyl-pyrrolidine-2-carboxamide Hydrochloride], the CLint scaled at 0.5 μM in data set [1] is 5 to 50 L/h/kg. Moreover, in data set [2], the EC50 was 20 to 200 nM and the Emax was greater than 70%.
Taken in the same sequence, the figures for `COc1nc(OC2CCC(C(F)(F)F)CC2)c(F)cc1CNC(=O)[C@@H]1C[C@@H](C)CN1C` (stereo partly drawn) [Example 62, (2S,4R)—N-[[5-Fluoro-2-methoxy-6-[4-(trifluoromethyl)cyclohexoxy]-3-pyridyl]methyl]-1,4-dimethyl-pyrrolidine-2-carboxamide Hydrochloride] were 50 to 500 L/h/kg, 20 to 200 nM and greater than 70%.
In the case of `COc1nc(OCC2(C(F)(F)F)CC2)c(F)cc1CNC(=O)[C@@H]1CCCN1C` [Example 63, (2S)—N-[[5-Fluoro-2-methoxy-6-[[1-(trifluoromethyl)cyclopropyl]methoxy]-3-pyridyl]methyl]-1-methyl-pyrrolidine-2-carboxamide Hydrochloride], the CLint scaled at 0.5 μM in data set [1] was less than 5 L/h/kg. For the same molecule, in data set [2], the EC50 was less than 20 nM and the Emax was greater than 70%.
Consider `Cc1nc(OC2CCC(C(F)(F)F)CC2)ccc1CNC(=O)C1CCCN1` [Example 65, (S)—N-((2-Methyl-6-(((1R,4S)-4-(trifluoromethyl)cyclohexyl)oxy)pyridin-3-yl)methyl)pyrrolidine-2-carboxamide], for which, in data set [1], the CLint scaled at 0.5 μM was less than 5 L/h/kg. In data set [2], the EC50 is 20 to 200 nM and the Emax fell in the range of 50 to 70%.
Regarding `COc1nc(OC2CCC(C(F)F)CC2)c(F)cc1CNC(=O)[C@@H]1CCCN1` (stereo partly drawn) [Example 66, (2S)—N-[[6-[4-(Difluoromethyl)cyclohexoxy]-5-fluoro-2-methoxy-3-pyridyl]methyl]-pyrrolidine-2-carboxamide hydrochloride], in data set [1], the CLint scaled at 0.5 μM is 5 to 50 L/h/kg. In data set [2], the EC50 is less than 20 nM and the Emax was greater than 70%.
`COc1nc(OCC2CC2(F)F)c(F)cc1CNC(=O)[C@@H]1CCCN1C` (stereo partly drawn) [Example 68, (2S)—N-[[6-[(2,2-Difluorocyclopropyl)methoxy]-5-fluoro-2-methoxy-3-pyridyl]-methyl]-1-methyl-pyrrolidine-2-carboxamide Hydrochloride]: in data set [1], the CLint scaled at 0.5 μM was less than 5 L/h/kg. Further, in data set [2], the EC50 is less than 20 nM and the Emax is greater than 70%.
As for `COc1nc(OC2CC(F)(F)C2)c(F)cc1CNC(=O)[C@@H]1CCCN1C` [Example 71, (2S)—N-[[6-(3,3-Difluorocyclobutoxy)-5-fluoro-2-methoxy-3-pyridyl]methyl]-1-methyl-pyrrolidine-2-carboxamide Hydrochloride], the CLint scaled at 0.5 μM in data set [1] was less than 5 L/h/kg. Further, in data set [2], the EC50 is less than 20 nM and the Emax is greater than 70%.
As for `COc1nc(OC2CCC(C(C)(F)F)CC2)c(F)cc1CNC(=O)[C@@H]1CCCN1` (stereo partly drawn) [Example 72, (2S)—N-((6-((4-(1,1-Difluoroethyl)cyclohexyl)oxy)-5-fluoro-2-methoxypyridin-3-yl)methyl)pyrrolidine-2-carboxamide 2,2,2-trifluoroacetate], in data set [1], the CLint scaled at 0.5 μM was 5 to 50 L/h/kg. In addition, in data set [2], the EC50 is less than 20 nM and the Emax was greater than 70%.
`COc1nc(OC2CCC(CF)CC2)c(F)cc1CNC(=O)[C@@H]1CCCN1` (stereo partly drawn) [Example 75, (2S)—N-[[5-fluoro-6-[4-(fluoromethyl)cyclohexoxy]-2-methoxy-3-pyridyl]methyl]-pyrrolidine-2-carboxamide; 2,2,2-trifluoroacetic Acid]: the CLint scaled at 0.5 μM in data set [1] lay in the range of 5 to 50 L/h/kg. Besides, in data set [2], the EC50 is less than 20 nM and the Emax is greater than 70%.
Regarding `COc1nc(OCC2(C(F)(F)F)CC2)c(F)cc1CN(C)C(=O)[C@@H]1CCCN1` [Example 76, (2S)—N-[[5-Fluoro-2-methoxy-6-[[1-(trifluoromethyl)cyclopropyl]methoxy]-3-pyridyl]methyl]-N-methyl-pyrrolidine-2-carboxamide Hydrochloride], the CLint scaled at 0.5 μM in data set [1] was less than 5 L/h/kg. Moreover, in data set [2], the EC50 was less than 20 nM and the maximal effect (Emax) was greater than 70%.
As to `COc1nc(OCC2CC2(F)F)c(F)cc1CN(C)C(=O)[C@@H]1CCCN1` (stereo partly drawn) [Example 77, (2S)—N-[[6-[(2,2-Difluorocyclopropyl)methoxy]-5-fluoro-2-methoxy-3-pyridyl]-methyl]-N-methyl-pyrrolidine-2-carboxamide Hydrochloride], in data set [1], the CLint scaled at 0.5 μM was less than 5 L/h/kg. In addition, in data set [2], the EC50 is less than 20 nM and the Emax was greater than 70%.
As to `COc1nc(OC2CC(F)(F)C2)c(F)cc1CN(C)C(=O)[C@@H]1CCCN1` [Example 78, (2S)—N-[[6-(3,3-Difluorocyclobutoxy)-5-fluoro-2-methoxy-3-pyridyl]methyl]-N-methyl-pyrrolidine-2-carboxamide Hydrochloride], the CLint scaled at 0.5 μM in data set [1] was less than 5 L/h/kg. For the same molecule, in data set [2], the EC50 was less than 20 nM and the Emax is greater than 70%.
With `COc1nc(OC2CCC(C(F)(F)F)CC2)c(F)cc1CNC(=O)[C@H]1NC[C@H]1C` (stereo partly drawn) [Example 79, (2S,3R)—N-[[5-Fluoro-2-methoxy-6-[4-(trifluoromethyl)cyclohexoxy]-3-pyridyl]-methyl]-3-methyl-azetidine-2-carboxamide; Fumaric Acid], the CLint scaled at 0.5 μM in data set [1] is 50 to 500 L/h/kg. In data set [2], the EC50 was 20 to 200 nM and the Emax lay in the range of 30 to 50%.
For `COc1nc(OC2CCC(O)CC2)c(F)cc1CNC(=O)[C@@H]1CCCN1` (stereo partly drawn) [Example 81, (2S)—N-[[5-Fluoro-6-(4-hydroxycyclohexoxy)-2-methoxy-3-pyridyl]methyl]-pyrrolidine-2-carboxamide; 2,2,2-trifluoroacetic Acid], the CLint scaled at 0.5 μM in data set [1] is less than 5 L/h/kg. In data set [2], the EC50 lay in the range of 200 to 1000 nM and the Emax is greater than 70%.
